From patent US10829481B2, “Benzimidazole derivatives as modulators of ROR-gamma” (Vitae Pharmaceuticals, LLC, priority 2016, dated 2020)

Columns and labels:
[1] = molecular target: full-length RORγt in Jurkat cells (Homo sapiens (Human), UniProt P51449); experiment: RORγt 5×RORE Assay in Jurkat Cells (Assay 2); assay type: cell-based; settings: 5×RORE Nanoluc luciferase reporter
Procedure: RORγt 5×RORE Assay in Jurkat Cells (Assay 2)
Compounds described herein were tested for RORγ inverse agonist activity in a cell-based, transcriptional activity assay. Secreted Nanoluc® luciferase was used as a reporter for transcriptional activity of the full-length RORγt in Jurkat cells (ATCC, Cat. #TIB-152). […] (Promega, Cat. #N1021) using KpnI and HindIII restriction sites. […] After 5-6 hrs of incubation at 37° C./5% CO2, the cells were collected, resuspended in phenol-red free RPMI media containing 10% (v/v) delipidated FBS (Hyclone, Cat. #SH30855.03) and dispensed into 96-well clear bottom tissue culture plates (CoStar, Cat. #3603), at 80,000 cells per well. Tested compounds were added to the cells in the same media (final concentration of DMSO was 0.1% (v/v)), and the plates were incubated at 37° C./5% CO2 for 16-18 hrs. Luciferase activity in the conditioned supernatants was determined with NanoGlo® assay reagents (Promega, Cat. #N1130).

[2] = molecular target: recombinant RORγ Ligand Binding Domain (LBD) protein (Homo sapiens (Human), UniProt P51449); experiment: Radio-Ligand RORγ Binding Assay (Assay 1); settings: competition with 25-hydroxy [26,27-3H]-cholesterol, SPA
Procedure: Radio-Ligand RORγ Binding Assay (Assay 1)
Compounds described herein were tested for ability to bind to RORγ in a cell-free competition assay with commercially available radio-ligand (RL), 25-hydroxy [26,27-^3H]-cholesterol (PerkinElmer, Cat. #NET674250UC), for a ligand binding site on a recombinant RORγ Ligand Binding Domain (LBD) protein expressed as a 6×His-Glutathione-S-Transferase (GST) fusion. The assay was performed in 96-well SPA plates (PerkinElmer, Cat. #1450-401) in 50 mM HEPES buffer, pH 7.4, containing 150 mM NaCl, 5 mM MgCl2, 10% (v/v) glycerol, 2 mM CHAPS, 0.5 mM β-octylglucopyranoside and 5 mM DTT. Tested compounds were dissolved in DMSO, and semi-log (3.162×) serial dilutions of the compounds were prepared in the same solvent. Two μL of the DMSO solutions were mixed with 28 μL of 8.6 nM 25-hydroxy [26,27-^3H]-cholesterol and 50 μL of 24 nM RORγ LBD. The plate was shaken at 700 rpm for 20 min and incubated for 10 min at rt, after which 40 μL of poly-Lys YSi SPA beads (PerkinElmer, Cat. #RPNQ0010) were added to achieve […] of the beads per well. The plate was incubated on an orbital shaker for 20 min and then for 10 min without agitation at rt. SPA signal for tritium beta radiation was registered on PerkinElmer Microbeta plate reader. […] The percent inhibition vs. concentration data were fit into a four-parameter model, and IC50 values were calculated from the fit as the concentrations corresponding to the inflection points on the dose-response curves. Inhibitory constants (Ki) were calculated using the following equation, where [RL] is the concentration in the assay and KD is a dissociation constant of 25-hydroxy [26,27-^3H]-cholesterol: […]

Chain of recombinant RORγ Ligand Binding Domain (LBD) protein (P51449 269-508): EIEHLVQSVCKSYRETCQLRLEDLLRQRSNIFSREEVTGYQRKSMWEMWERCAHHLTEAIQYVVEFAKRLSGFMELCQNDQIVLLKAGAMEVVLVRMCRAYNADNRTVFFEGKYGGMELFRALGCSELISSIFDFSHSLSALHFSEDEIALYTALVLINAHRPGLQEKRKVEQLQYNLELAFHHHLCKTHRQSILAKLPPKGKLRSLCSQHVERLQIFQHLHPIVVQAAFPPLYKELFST
Chain of full-length RORγt in Jurkat cells (P51449 other isoform, or with tags, fused parts or gaps): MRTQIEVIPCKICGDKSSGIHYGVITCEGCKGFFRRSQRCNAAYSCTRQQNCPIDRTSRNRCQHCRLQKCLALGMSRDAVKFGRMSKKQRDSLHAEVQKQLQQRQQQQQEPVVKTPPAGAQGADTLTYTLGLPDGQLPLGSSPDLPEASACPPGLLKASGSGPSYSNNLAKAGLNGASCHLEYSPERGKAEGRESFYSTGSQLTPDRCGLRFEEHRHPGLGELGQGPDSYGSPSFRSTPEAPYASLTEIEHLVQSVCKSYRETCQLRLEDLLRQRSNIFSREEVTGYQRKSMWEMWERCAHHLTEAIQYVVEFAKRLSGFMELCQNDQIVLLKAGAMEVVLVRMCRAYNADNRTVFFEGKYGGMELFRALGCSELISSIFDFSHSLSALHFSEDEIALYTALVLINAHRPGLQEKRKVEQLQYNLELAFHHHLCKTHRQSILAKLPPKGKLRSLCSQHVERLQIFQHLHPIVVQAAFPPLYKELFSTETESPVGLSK

Compound | IC50 [1] | Ki [2]
CCS(=O)(=O)c1ccc(CNC(=O)c2ccc3c(c2)nc([C@H](C)OC)n3Cc2cccc3c2OC(F)(F)O3)cc1 (mixture of isomers) [I-49.1, (S)-1-((2,2-difluorobenzo[d][1,3]dioxol-4-yl)methyl)-N-(4-(ethylsulfonyl)benzyl)-2-(1-methoxyethyl)-1H-benzo[d]imidazole-5-carboxamide and (R)-1-((2,2-difluorobenzo[d][1,3]dioxol-4-yl)methyl)-N-(4-(ethylsulfonyl)benzyl)-2-(1-methoxyethyl)-1H-benzo[d]imidazole-5-carboxamide] | < 100 nM | < 100 nM
CCS(=O)(=O)c1ccc(CNC(=O)c2ccc3c(c2)nc([C@@H](C)OC)n3Cc2cccc3c2OC(F)(F)O3)cc1 (mixture of isomers) [I-49.2, (S)-1-((2,2-difluorobenzo[d][1,3]dioxol-4-yl)methyl)-N-(4-(ethylsulfonyl)benzyl)-2-(1-methoxyethyl)-1H-benzo[d]imidazole-5-carboxamide and (R)-1-((2,2-difluorobenzo[d][1,3]dioxol-4-yl)methyl)-N-(4-(ethylsulfonyl)benzyl)-2-(1-methoxyethyl)-1H-benzo[d]imidazole-5-carboxamide] | < 100 nM | < 100 nM
CS(=O)(=O)N1CCC([C@@H](CO)NC(=O)c2ccc3c(c2)nc(C(F)(F)F)n3Cc2cccc3c2OC(F)(F)O3)CC1 (mixture of isomers) [I-164.1, (R)-1-((2,2-difluorobenzo[d][1,3]dioxol-4-yl)methyl)-N-(2-hydroxy-1-(1-(methylsulfonyl)piperidin-4-yl)ethyl)-2-(trifluoromethyl)-1H-benzo[d]imidazole-5-carboxamide and (S)-1-((2,2-difluorobenzo[d][1,3]dioxol-4-yl)methyl)-N-(2-hydroxy-1-(1-(methylsulfonyl)piperidin-4-yl)ethyl)-2-(trifluoromethyl)-1H-benzo[d]imidazole-5-carboxamide] | < 100 nM | < 100 nM
CS(=O)(=O)N1CCC([C@H](CO)NC(=O)c2ccc3c(c2)nc(C(F)(F)F)n3Cc2cccc3c2OC(F)(F)O3)CC1 (mixture of isomers) [I-164.2, (R)-1-((2,2-difluorobenzo[d][1,3]dioxol-4-yl)methyl)-N-(2-hydroxy-1-(1-(methylsulfonyl)piperidin-4-yl)ethyl)-2-(trifluoromethyl)-1H-benzo[d]imidazole-5-carboxamide and (S)-1-((2,2-difluorobenzo[d][1,3]dioxol-4-yl)methyl)-N-(2-hydroxy-1-(1-(methylsulfonyl)piperidin-4-yl)ethyl)-2-(trifluoromethyl)-1H-benzo[d]imidazole-5-carboxamide] | < 100 nM | < 100 nM
CCS(=O)(=O)c1ccc([C@H](O)C(=O)Nc2ccc3c(c2)nc(C(F)(F)F)n3Cc2cccc3c2OC(F)(F)O3)cc1 (mixture of isomers) [I-170.1, (S)-N-(1-((2,2-difluorobenzo[d][1,3]dioxol-4-yl)methyl)-2-(trifluoromethyl)-1H-benzo[d]imidazol-5-yl)-2-(4-(ethylsulfonyl)phenyl)-2-hydroxyacetamide and (R)-N-(1-((2,2-difluorobenzo[d][1,3]dioxol-4-yl)methyl)-2-(trifluoromethyl)-1H-benzo[d]imidazol-5-yl)-2-(4-(ethylsulfonyl)phenyl)-2-hydroxyacetamide] | < 100 nM | < 100 nM
CCS(=O)(=O)c1ccc([C@@H](O)C(=O)Nc2ccc3c(c2)nc(C(F)(F)F)n3Cc2cccc3c2OC(F)(F)O3)cc1 (mixture of isomers) [I-170.2, (S)-N-(1-((2,2-difluorobenzo[d][1,3]dioxol-4-yl)methyl)-2-(trifluoromethyl)-1H-benzo[d]imidazol-5-yl)-2-(4-(ethylsulfonyl)phenyl)-2-hydroxyacetamide and (R)-N-(1-((2,2-difluorobenzo[d][1,3]dioxol-4-yl)methyl)-2-(trifluoromethyl)-1H-benzo[d]imidazol-5-yl)-2-(4-(ethylsulfonyl)phenyl)-2-hydroxyacetamide] | < 100 nM | < 100 nM
CCS(=O)(=O)c1ccc(CC(=O)Nc2ccc3c(c2)nc(C(F)(F)F)n3Cc2cccc3c2OC(F)(F)O3)cc1 [I-1, N-(1-((2,2-difluorobenzo[d][1,3]dioxol-4-yl)methyl)-2-(trifluoromethyl)-1H-benzo[d]imidazol-5-yl)-2-(4-(ethylsulfonyl)phenyl)acetamide] | < 100 nM | < 100 nM
CS(=O)(=O)c1ccc(CC(=O)Nc2ccc3c(c2)nc(C(F)(F)F)n3Cc2cccc3c2OC(F)(F)O3)cc1 [I-2, N-(1-((2,2-difluorobenzo[d][1,3]dioxol-4-yl)methyl)-2-(trifluoromethyl)-1H-benzo[d]imidazol-5-yl)-2-(4-(methylsulfonyl)phenyl)acetamide] | < 100 nM | < 100 nM
O=C(Cc1ccc(S(=O)(=O)CCO)cc1)Nc1ccc2c(c1)nc(C(F)(F)F)n2Cc1cccc2c1OC(F)(F)O2 [I-3, N-(1-((2,2-difluorobenzo[d][1,3]dioxol-4-yl)methyl)-2-(trifluoromethyl)-1H-benzo[d]imidazol-5-yl)-2-(4-((2-hydroxyethyl)sulfonyl)phenyl)acetamide] | < 100 nM | < 100 nM
COCCS(=O)(=O)c1ccc(CC(=O)Nc2ccc3c(c2)nc(C(F)(F)F)n3Cc2cccc3c2OC(F)(F)O3)cc1 [I-4, N-(1-((2,2-difluorobenzo[d][1,3]dioxol-4-yl)methyl)-2-(trifluoromethyl)-1H-benzo[d]imidazol-5-yl)-2-(4-((2-methoxyethyl)sulfonyl)phenyl)acetamide] | < 100 nM | < 100 nM
CNS(=O)(=O)c1ccc(CC(=O)Nc2ccc3c(c2)nc(C(F)(F)F)n3Cc2cccc3c2OC(F)(F)O3)cc1 [I-5, N-(1-((2,2-difluorobenzo[d][1,3]dioxol-4-yl)methyl)-2-(trifluoromethyl)-1H-benzo[d]imidazol-5-yl)-2-(4-(N-methylsulfamoyl)phenyl)acetamide] | < 100 nM | < 100 nM
N#Cc1ccc(CC(=O)Nc2ccc3c(c2)nc(C(F)(F)F)n3Cc2cccc3c2OC(F)(F)O3)cc1 [I-6, 2-(4-cyanophenyl)-N-(1-((2,2-difluorobenzo[d][1,3]dioxol-4-yl)methyl)-2-(trifluoromethyl)-1H-benzo[d]imidazol-5-yl)acetamide] | > 1000 nM | < 100 nM
CCS(=O)(=O)c1ccc(CC(=O)Nc2ccc3c(c2)nc(C2CC2)n3Cc2cccc3c2OC(F)(F)O3)cc1 [I-9, N-(2-cyclopropyl-1-((2,2-difluorobenzo[d][1,3]dioxol-4-yl)methyl)-1H-benzo[d]imidazol-5-yl)-2-(4-(ethylsulfonyl)phenyl)acetamide] | < 100 nM | < 100 nM
CS(=O)(=O)N1CCC(CC(=O)Nc2ccc3c(c2)nc(C(F)(F)F)n3Cc2cccc3c2OC(F)(F)O3)CC1 [I-10, N-(1-((2,2-difluorobenzo[d][1,3]dioxol-4-yl)methyl)-2-(trifluoromethyl)-1H-benzo[d]imidazol-5-yl)-2-(1-(methylsulfonyl)piperidin-4-yl)acetamide] | > 1000 nM | < 100 nM
CCS(=O)(=O)c1ccc([C@H](CO)NC(=O)c2ccc3c(c2)nc(C(F)(F)F)n3Cc2cccc3c2OC(F)(F)O3)cc1 [I-11.1, (R)-1-((2,2-difluorobenzo[d][1,3]dioxol-4-yl)methyl)-N-(1-(4-(ethylsulfonyl)phenyl)-2-hydroxyethyl)-2-(trifluoromethyl)-1H-benzo[d]imidazole-5-carboxamide] | < 100 nM | < 100 nM
CCS(=O)(=O)c1ccc([C@@H](CO)NC(=O)c2ccc3c(c2)nc(C(F)(F)F)n3Cc2cccc3c2OC(F)(F)O3)cc1 [I-11.2, (S)-1-((2,2-difluorobenzo[d][1,3]dioxol-4-yl)methyl)-N-(1-(4-(ethylsulfonyl)phenyl)-2-hydroxyethyl)-2-(trifluoromethyl)-1H-benzo[d]imidazole-5-carboxamide] | < 100 nM | < 100 nM
